# Test results published in patent US20090175845A1, “METHODS FOR IDENTIFYING COMPOUNDS THAT MODULATE PHB DOMAIN PROTEIN ACTIVITY AND COMPOSITIONS THEREOF” (THE TRUSTEES OF COLUMBIA UNIVERSITY IN THE CITY OF NEW YORK, priority 2005, published 2009).
# Key:
# [1] = target: T1, NusA fused to the cholesterol binding domain of Podocin (amino acids 119-284) (Mus musculus, UniProt Q91X05); assay: In vitro cholesterol interaction, scintillation counting of bead-bound recombinant protein
# T1 construct: made in house; host or cells: E. coli
# T1 sequence (Q91X05 119-284): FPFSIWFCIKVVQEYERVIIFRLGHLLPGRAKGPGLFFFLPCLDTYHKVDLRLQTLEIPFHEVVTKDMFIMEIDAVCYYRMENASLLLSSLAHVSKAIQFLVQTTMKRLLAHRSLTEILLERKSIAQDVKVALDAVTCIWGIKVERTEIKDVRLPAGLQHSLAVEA
# Experimental: In vitro cholesterol interaction. Podocin truncations were cloned into various bacterial expression vectors and tested for the expression of soluble recombinant fusion proteins. […] Purity of the preparation was confirmed on Coomassie gels. For in vitro cholesterol interaction assays 2-20 μg of affinity purified Podocin protein was bound to 30 μl of Ni+ beads and incubated with 0.1 μCi [^3H]cholesterol (Amersham) complexed with low amounts of cyclodextrine. After binding for 10 minutes at 37° C. beads were washed extensively and counted in a scintillation counter. To confirm equal loading of the beads aliquots of the bound protein were run on Coomassie gels. Competition experiments were performed with 1 μg of affinity purified Podocin protein fused to NusA or NusA alone as a control. Samples were incubated with radioactively labeled cholesterol in the absence (no cold competition) or presence (cold competition) of varying amounts of […]. Cold competition was approximately 100-fold excess of cold cholesterol. The sample was washed extensively and subjected to scintillation counting.
# The importance of different regions of Podocin for cholesterol binding was tested by fusing them to the extracellular and transmembrane domains of Nephrin. […]
# [2] = target: T2, Podocin (Mus musculus, UniProt Q91X05); assay: Detergent-resistant membrane (DRM) fractionation by density gradient centrifugation; type: cell-based; conditions: limited cholesterol depletion with MBCD; readdition of cholesterol, FIG. 1D
# T2 construct: expressed in transfected cells; host or cells: HEK 293T
# T2 sequence (Q91X05 1-385): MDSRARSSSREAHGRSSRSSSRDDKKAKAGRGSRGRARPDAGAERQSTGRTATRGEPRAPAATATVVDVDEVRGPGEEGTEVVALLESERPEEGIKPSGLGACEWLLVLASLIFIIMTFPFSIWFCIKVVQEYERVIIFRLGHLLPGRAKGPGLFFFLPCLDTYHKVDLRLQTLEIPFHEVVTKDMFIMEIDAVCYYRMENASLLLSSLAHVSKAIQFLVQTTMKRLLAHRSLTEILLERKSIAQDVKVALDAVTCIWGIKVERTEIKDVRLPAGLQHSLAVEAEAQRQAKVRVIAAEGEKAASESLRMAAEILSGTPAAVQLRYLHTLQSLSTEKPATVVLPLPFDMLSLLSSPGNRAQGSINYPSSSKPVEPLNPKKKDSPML
# Experimental: Preparation of Detergent-Resistant Membrane Domains and Cholesterol Measurement—For preparation of low-density Triton® X-100—insoluble membrane domains (DRM; LDF) HEK 293T cells were homogenized by 20 strokes in a Dounce homogenizer in 1 ml of MBS buffer (250 mM NaCl, 5 mM EDTA, 10 mM Tris, pH 7.4, proteinase inhibitors) in the presence of 1% Triton® X-100 and centrifuged for ten minutes at 3,000×g at 4° C. The lysates were incubated for 45 minutes on ice in the presence of 1% Triton® X-100, adjusted to 45% sucrose and pipetted at the bottom of an ultracentrifuge tube. Samples were then overlaid with a sucrose step gradient (2 ml of 30% sucrose and 1 ml of 5% sucrose in MBS) as described previously {Huber, 2003 #205}. Gradients were centrifuged for 20 hours at 200,000×g at 4° C. in a swing-out rotor, and seven fractions ([…] each) were collected starting from the top and analyzed by SDS-PAGE. Cholesterol was measured using the Amplex® Red Cholesterol Assay Kit (Molecular Probes).
# Cell Culture Studies. Most cell studies used HEK 293T cells that were grown in DMEM as described [Huber et al. (2001) J. Biol. Chem. 18:18]. Cholesterol-depleted cells were prepared by growing cells in DMEM with pravastatin (8 μM) for two days and then methyl-β-cyclodextrine (MBCD; 5 mM) for 30 minutes just before the experiment. […]
smiles,measurement,setting,value
CC(C)CCC[C@@H](C)[C@H]1CC[C@H]2[C@@H]3CC=C4C[C@@H](O)CC[C@]4(C)[C@H]3CC[C@]12C [cholesterol],direct binding of [3H]cholesterol in vitro,"[1]; Podocin fragments produced in E. coli, 10 minutes at 37° C.",sufficient for cholesterol binding
same,cold competition of [3H]cholesterol binding,[1]; approximately 100-fold excess of unlabeled cholesterol,competed
same,Podocin in DRM fractions,[2],could be reversed
